Entries after “also recorded” stand apart in the source; their conditions may differ.
Test system: patients with refractory metastatic colorectal cancer (mCRC)
Assay: PFS, OS and disease control in the control cohort of refractory mCRC patients receiving regorafenib (n=52, Italy), by baseline characteristics and SNP genotype
Format: in vivo, human
Details: for Median OS (months) / Median PFS (months): ITA REGORA cohort; for Disease Control CR/PR/SD, patients n (%) / Median OS (95% CI) / Median PFS (95% CI) / PD, patients n (%) / HR OS (95% CI) / HR PFS (95% CI) / Median OS / Median PFS / HR OS / HR PFS: control cohort
Method: All patients underwent the treatment in salvage-line setting.
(§1) Patients in the control group received 160 mg regorafenib (Bayer, Leverkusen, Germany) once daily from day 1 to 21 every 4 weeks. Doses were adjusted based on haematological and non-haematological adverse events at the treating physician's discretion in accordance with the manufacturer's recommendations. The analyses were approved by the University of Southern California (USC) Institutional Review Board of Medical Sciences and conducted at the USC/Norris Comprehensive Cancer Center in accordance with the Declaration of Helsinki and Good Clinical Practice Guidelines.
(§2) Genomic DNA was extracted from peripheral whole blood in patients of all cohorts using the QIAmp Kit (Qiagen, Valencia, Calif., USA) according to the manufacturer's protocol (www.qiagen.com). The candidate SNPs were genotyped using PCR-based direct DNA sequence analysis by ABI 3100A Capillary Genetic Analyzer and Sequencing Scanner v1.0 (Applied Biosystems). Amplification of extracted DNA was carried out using both forward and reverse primers for each gene polymorphism as shown in Table 1. […] The investigators analyzing SNPs were blinded to the clinical data of the study patients.
The primary endpoint in this study was progression-free survival (PFS), and the secondary endpoints were overall survival (OS) and disease control rate (DCR). PFS was calculated from the date of starting treatment to the first observation of disease progression or death from any cause. If a patient had no disease progression or death, PFS was censored at the date of last follow up. OS was calculated from the date of starting treatment until the date of death from any cause or the date of the last follow-up, at which point OS was censored. The disease control rate (DCR) was defined as the proportion of patients who achieved a stable disease (SD) or […] according to RECISTv1.1. Chi-square test was used to examine the difference in baseline patient characteristics among the three cohorts. Allelic distribution of all SNPs by ethnicity for deviation from Hardy-Weinberg equilibrium and the allelic frequencies of SNPs were tested using the Chi-square tests with one degree of freedom. The associations between candidate SNPs and disease control, and toxicities were examined using contingency tables and Fisher's exact test. The associations of SNPs with PFS and OS were analysed using Kaplan-Meier curves and the log-rank test. Because the true mode of inheritance of candidate SNPs was not established yet, a codominant or dominant genetic model if appropriate was considered.
All patients underwent the treatment in salvage-line setting. […] In all patients, adverse events were graded according to the Common Terminology Criteria for Adverse Events, version 4.0.
as §1, with “events at treating physician's” for “events at the treating physician's”
as §2, with “tested” for “genotyped”, “Biosystems).” for “Biosystems). Amplification of extracted DNA was carried out using both forward and reverse primers for each gene polymorphism as shown in Table 1.”, “data.” for “data of the study patients.”
The primary endpoint in this study was progression-free survival (PFS), and the secondary endpoints were overall survival (OS) and disease control rate (DCR). […]

[1] = ATM rs609429 Any G vs C/C (Ref.), multivariable
[2] = ATM rs609429 Any G vs C/C (Ref.), univariate
[3] = Adjuvant history No vs Yes (Ref.), univariate
[4] = Age ≥61 vs <61 (Ref.), univariate
[5] = CHEK2 rs2267130 Any C vs T/T (Ref.), multivariable
[6] = CHEK2 rs2267130 Any C vs T/T (Ref.), univariate
[7] = CHEK2 rs2267130 C/C vs T/T (Ref.), multivariable
[8] = CHEK2 rs2267130 C/C vs T/T (Ref.), univariate
[9] = CHEK2 rs2267130 T/C vs T/T (Ref.), multivariable
[10] = CHEK2 rs2267130 T/C vs T/T (Ref.), univariate
[11] = KRAS Mutant vs Wild type (Ref.), univariate
[12] = LN metastasis No vs Yes (Ref.), univariate
[13] = Liver metastasis No vs Yes (Ref.), univariate
[14] = Lung metastasis No vs Yes (Ref.), univariate
[15] = Number of metastases >2 vs ≤2 (Ref.), univariate
[16] = Performance status ECOG 1 vs ECOG 0 (Ref.), univariate
[17] = Peritoneal No vs Yes (Ref.), univariate
[18] = Pre-chemo numbers ≥4 vs <4 (Ref.), univariate
[19] = Primary tumor resection No vs Yes (Ref.), univariate

## CNC(=O)c1cc(Oc2ccc(NC(=O)Nc3ccc(Cl)c(C(F)(F)F)c3)c(F)c2)ccn1 [regorafenib]
ATM rs609429 C/C (n=28)
  Median OS (months): 4.5 months
ATM rs609429 G/C or G/G (n=24)
  Median OS (months): 5.9 months
XRCC3 rs861539 G/A (n=37)
  Median OS (months): 5.9 months
  Median PFS (months): 1.9 months
XRCC3 rs861539 G/G (n=15)
  Median OS (months): 4.1 months
  Median PFS (months): 1.7 months
Control cohort receiving regorafenib without previous TAS-102, uni- and multivariate analyses
  association of candidate SNPs with PFS or OS: no significant differences; also recorded: no significant association
ATM rs609429 Any G
  Disease Control CR/PR/SD, patients n (%): 9 (38%)
  Median OS (95% CI): 5.9 (3.5, 10.2) months
  Median PFS (95% CI): 2.0 (1.7, 3.1) months
  PD, patients n (%): 15 (63%)
[1]
  HR OS (95% CI): 0.84 (0.47, 1.48)
  HR PFS (95% CI): 1.06 (0.60, 1.87)
[2]
  HR OS (95% CI): 1.91 (0.44, 8.31)
  HR PFS (95% CI): 0.95 (0.55, 1.66)
ATM rs609429 C/C
  Disease Control CR/PR/SD, patients n (%): 8 (32%)
  Median OS (95% CI): 4.6 (2.6, 7.6) months
  Median PFS (95% CI): 1.9 (1.6, 2.8) months
  PD, patients n (%): 17 (68%)
ATM rs609429 C/G
  Disease Control CR/PR/SD, patients n (%): 8 (38%)
  PD, patients n (%): 13 (62%)
ATM rs609429 G/G
  Disease Control CR/PR/SD, patients n (%): 1 (33%)
  PD, patients n (%): 2 (67%)
Adjuvant history No
  Median OS: 5.9 months
  Median PFS: 2.0 months
[3]
  HR OS: 0.59
  HR PFS: 0.71
Adjuvant history Yes
  Median OS: 3.9 months
  Median PFS: 1.8 months
Age <61
  Median OS: 5.1 months
  Median PFS: 1.8 months
Age ≥61
  Median OS: 5.8 months
  Median PFS: 2.1 months
[4]
  HR OS: 0.74
  HR PFS: 0.58
CHEK2 rs2267130 Any C
  Disease Control CR/PR/SD, patients n (%): 13 (36%)
  Median OS (95% CI): 5.9 (4.4, 7.9) months
  Median PFS (95% CI): 1.8 (1.7, 2.8) months
  PD, patients n (%): 23 (64%)
[5]
  HR OS (95% CI): 0.81 (0.42, 1.54)
  HR PFS (95% CI): 1.22 (0.65, 2.28)
[6]
  HR OS (95% CI): 0.80 (0.44, 1.48)
  HR PFS (95% CI): 1.07 (0.58, 1.95)
CHEK2 rs2267130 C/C
  Disease Control CR/PR/SD, patients n (%): 3 (27%)
  Median OS (95% CI): 5.7 (2.0, 7.8) months
  Median PFS (95% CI): 2.0 (1.5, 2.7) months
  PD, patients n (%): 8 (73%)
[7]
  HR OS (95% CI): 0.90 (0.41, 2.00)
  HR PFS (95% CI): 1.35 (0.61, 2.99)
[8]
  HR OS (95% CI): 0.89 (0.41, 1.97)
  HR PFS (95% CI): 1.18 (0.54, 2.59)
CHEK2 rs2267130 T/C
  Disease Control CR/PR/SD, patients n (%): 10 (40%)
  Median OS (95% CI): 6.2 (2.4, 8.9) months
  Median PFS (95% CI): 1.8 (1.6, 3.1) months
  PD, patients n (%): 15 (60%)
[9]
  HR OS (95% CI): 0.76 (0.38, 1.53)
  HR PFS (95% CI): 1.15 (0.58, 2.27)
[10]
  HR OS (95% CI): 0.77 (0.40, 1.48)
  HR PFS (95% CI): 1.02 (0.54, 1.95)
CHEK2 rs2267130 T/T
  Disease Control CR/PR/SD, patients n (%): 4 (31%)
  Median OS (95% CI): 3.8 (2.2, 8.0) months
  Median PFS (95% CI): 1.9 (1.4, 3.4) months
  PD, patients n (%): 9 (69%)
KRAS Mutant
  Median OS: 4.8 months
  Median PFS: 2.0 months
[11]
  HR OS: 0.93
  HR PFS: 1.05
KRAS Wild type
  Median OS: 6.3 months
  Median PFS: 1.9 months
LN metastasis No
  Median OS: 7.7 months
  Median PFS: 2.8 months
[12]
  HR OS: 0.62
  HR PFS: 0.52
LN metastasis Yes
  Median OS: 3.8 months
  Median PFS: 1.8 months
Liver metastasis No
  Median OS: 6.6 months
  Median PFS: 4.8 months
[13]
  HR OS: 0.61
  HR PFS: 0.46
Liver metastasis Yes
  Median OS: 4.7 months
  Median PFS: 1.9 months
Lung metastasis No
  Median OS: 3.7 months
  Median PFS: 2.0 months
[14]
  HR OS: 1.24
  HR PFS: 1.17
Lung metastasis Yes
  Median OS: 5.9 months
  Median PFS: 1.9 months
Number of metastases >2
  Median OS: 4.0 months
  Median PFS: 1.9 months
[15]
  HR OS: 1.59
  HR PFS: 1.86
Number of metastases ≤2
  Median OS: 6.3 months
  Median PFS: 2.8 months
Performance status ECOG 0
  Median OS: 5.9 months
  Median PFS: 2.1 months
Performance status ECOG 1
  Median OS: 2.4 months
  Median PFS: 1.2 months
[16]
  HR OS: 2.09
  HR PFS: 2.27
Peritoneal No
  Median OS: 5.5 months
  Median PFS: 2.0 months
[17]
  HR OS: 0.82
  HR PFS: 0.87
Peritoneal Yes
  Median OS: 5.1 months
  Median PFS: 1.9 months
Pre-chemo numbers <4
  Median OS: 6.0 months
  Median PFS: 2.0 months
Pre-chemo numbers ≥4
  Median OS: 4.7 months
  Median PFS: 1.8 months
[18]
  HR OS: 1.16
  HR PFS: 0.95
Primary tumor resection No
  Median OS: 4.2 months
  Median PFS: 2.0 months
[19]
  HR OS: 1.04
  HR PFS: 0.79
Primary tumor resection Yes
  Median OS: 5.6 months
  Median PFS: 1.9 months

— patent US20190233884A1 (University of Southern California, priority 2016, published 2019)
